64 molecules from US20250340543A1, “GPR84 ANTAGONISTS AND USES THEREOF” (Liminal BioSciences Limited, priority 2021, published 2025) can be followed below.

In the experiment the target is GPR84 (Homo sapiens (Human), UniProt Q9NQS5). Description: Gai biosensor BRET assay (GPR84-mediated activation of Gai, antagonist mode against agonist ZQ-16). In kind it is cell-based. The following applies: for inhibition at 10 µM: compound tested at 10 μM (concentration code D); for IC50: HEK293 cells, 200 nmol/L GPR84 agonist ZQ-16, read-out: hGPR84 IC50; for inhibition at 2 µM: compound tested at 2 μM (concentration code A). The method in brief: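 Transiently transfected HEK293 cells expressing GPR84, Gαi2-Rluc8, GFP10-Gγ2 and Gβ1, in Tyrode's buffer pH 7.5. Compounds pre-incubated 5 min at 37° C, then 200 nmol/L ZQ-16 for 5 min at room temperature; BRET² with coelenterazine 400A, ligand-promoted net BRET after background and vehicle subtraction.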
GPR84, sequence (Q9NQS5 whole entry): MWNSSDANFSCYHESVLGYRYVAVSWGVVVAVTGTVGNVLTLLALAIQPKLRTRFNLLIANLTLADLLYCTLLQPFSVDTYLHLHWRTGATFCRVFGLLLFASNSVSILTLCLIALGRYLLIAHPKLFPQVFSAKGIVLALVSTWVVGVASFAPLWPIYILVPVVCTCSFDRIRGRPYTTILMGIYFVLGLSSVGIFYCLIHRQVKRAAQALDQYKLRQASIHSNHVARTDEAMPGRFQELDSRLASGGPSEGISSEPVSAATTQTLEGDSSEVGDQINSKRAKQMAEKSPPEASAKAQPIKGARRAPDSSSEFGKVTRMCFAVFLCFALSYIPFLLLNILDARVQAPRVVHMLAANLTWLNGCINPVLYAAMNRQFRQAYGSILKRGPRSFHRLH

As a reminder, the inhibition is the share of the control response that was lost under treatment. By IC50 is commonly meant the point on the concentration scale where inhibition reaches its midpoint.

Molecules are shown by their SMILES.

As for `Cc1cc(OCC2CCCCO2)cc(=O)n1C(C)c1ccc(OCC(F)(F)F)cc1` (centres unmarked) [Compound I-274], the inhibition at 10 µM is < 25%.
Take `Cc1cc(OCc2ncccn2)cc(=O)n1C(C)c1ccc(OCC(F)(F)F)cc1` (centres unmarked) [Compound I-275]: the inhibition at 10 µM was < 25%.
As to `Cc1cc(OCc2ncccc2F)cc(=O)n1[C@H](C)c1ccc(C#CC2CC2)cc1` [Compound I-278], the IC50 was < 5 µM and the inhibition at 2 µM is > 75%.
For `Cc1cnc(COc2cc(C)n([C@H](C)c3ccc(C#CC4CC4)cc3)c(=O)c2)nc1` [Compound I-279], the inhibition at 10 µM is > 75%.
On to `Cc1cc(OCc2ncccn2)cc(=O)n1Cc1cccc(C#CCNc2ccccc2)c1` [Compound I-280], for which the inhibition at 10 µM was < 25%.
With `Cc1cc(OCc2cncnc2)cc(=O)n1[C@H](C)c1ccc(C#CC2CC2)cc1` [Compound I-283], the IC50 is < 5 µM and the inhibition at 2 µM is > 75%.
`Cc1cc(OCc2cocn2)cc(=O)n1[C@H](C)c1ccc(C#CC2CC2)cc1` [Compound I-284]: the inhibition at 2 µM was > 75%.
For `Cc1cc(C#CC2CC2)cnc1C(C)n1ccc(OC[C@@H]2COCCO2)cc1=O` (some centres unmarked) [Compound I-285], the inhibition at 10 µM is < 25%.
For `CC(c1cc(C#CC2CC2)ccn1)n1ccc(OC[C@@H]2COCCO2)cc1=O` (some centres unmarked) [Compound I-286], the inhibition at 10 µM is < 25%.
`Cc1cc(OCc2ncccn2)cc(=O)n1C(C)c1ccc(C#CC2CC2)nc1` (centres unmarked) [Compound I-287] had an inhibition at 10 µM of 25 to 50%.
`Cc1cc(OCc2ncccn2)cc(=O)n1[C@H](C)c1ccc(C#CC2CC2)nc1` [Compound I-288] gave an inhibition at 10 µM of 25 to 50%.
For the molecule `Cc1ccc(C#CC2CC2)cc1Cn1c(C)cc(OCc2ncccn2)cc1=O` [Compound I-289], the inhibition at 2 µM was < 25%.
Consider `Cc1cc(OCc2ccccn2)cc(=O)n1[C@H](C)c1ccc(C#CC2CC2)cc1` [Compound I-290], for which the IC50 is < 5 µM and the inhibition at 2 µM was > 75%.
For `Cc1cc(OCc2cccnn2)cc(=O)n1[C@H](C)c1ccc(C#CC2CC2)cc1` [Compound I-291], the IC50 was < 5 µM and the inhibition at 2 µM was > 75%.
For `Cc1cc(OCc2ncccn2)cc(=O)n1C(C)c1ccc(C#CC2CC2)s1` (centres unmarked) [Compound I-292], the inhibition at 10 µM was in the range of 25 to 50%.
As for `Cc1cc(OCc2nccs2)cc(=O)n1[C@H](C)c1ccc(C#CC2CC2)cc1` [Compound I-293], the IC50 was < 5 µM and the inhibition at 2 µM was > 75%.
For `Cc1cc(OCc2cscn2)cc(=O)n1[C@H](C)c1ccc(C#CC2CC2)cc1` [Compound I-294], the IC50 was < 5 µM and the inhibition at 10 µM is > 75%.
With `Cc1cc(OCn2cccn2)cc(=O)n1[C@H](C)c1ccc(C#CC2CC2)cc1` [Compound I-295], the inhibition at 10 µM was > 75%.
On to `Cc1cc(OCc2ncco2)cc(=O)n1[C@H](C)c1ccc(C#CC2CC2)cc1` [Compound I-296], for which the IC50 was < 5 µM and the inhibition at 10 µM is > 75%.
For `Cc1cc(OCc2ccccc2Cl)cc(=O)n1[C@H](C)c1ccc(C#CC2CC2)cc1` [Compound I-297], the inhibition at 10 µM was < 25%.
Turning to `Cc1cc(OCc2ncccn2)cc(=O)n1[C@H](C)c1ccc(C#CC(C)C)cc1` [Compound I-298], the inhibition at 10 µM fell in the range of 50 to 75%.
Consider `Cc1ccc([C@@H](C)n2c(C)cc(OCc3ncccn3)cc2=O)cc1` [Compound I-299], for which the inhibition at 10 µM is < 25%.
For the molecule `Cc1cc(OCc2ncccn2)cc(=O)n1[C@H](C)c1ccccc1` [Compound I-300], the inhibition at 10 µM is < 25%.
On the same count and under the same terms, the value for `COc1ccc([C@@H](C)n2c(C)cc(OCc3ncccn3)cc2=O)cc1` [Compound I-301] was < 25%.
For the molecule `Cc1cc(OCc2nccn2C)cc(=O)n1[C@H](C)c1ccc(C#CC2CC2)cc1` [Compound I-303], the IC50 is < 5 µM and the inhibition at 2 µM is > 75%.
As for `Cc1cc(OCc2ncccn2)cc(=O)n1[C@H](C)c1ccc(Cl)cc1` [Compound I-304], the inhibition at 10 µM is < 25%.
For the molecule `Cc1cc(OCc2cccnc2Cl)cc(=O)n1[C@H](C)c1ccc(C#CC2CC2)cc1` [Compound I-305], the inhibition at 10 µM is > 75%.
As to `Cc1cc(OCc2cc(Cl)ccn2)cc(=O)n1[C@H](C)c1ccc(C#CC2CC2)cc1` [Compound I-306], the inhibition at 10 µM was in the range of 25 to 50%.
In the case of `Cc1cc(OCc2ncccn2)cc(=O)n1C(C)c1ccc(Oc2ccccc2)cc1` (centres unmarked) [Compound I-307], the inhibition at 10 µM is < 25%.
As for `Cc1cc(OCn2ccnc2)cc(=O)n1[C@H](C)c1ccc(C#CC2CC2)cc1` [Compound I-308], the inhibition at 10 µM was > 75%.
Consider `CCCCCc1ccc([C@@H](C)n2c(C)cc(OCc3ncccn3)cc2=O)cc1` [Compound I-309], for which the inhibition at 10 µM was < 25%.
As to `Cc1cc(OCc2ncccn2)cc(=O)n1[C@H](C)c1ccc(CCC2CC2)cc1` [Compound I-310], the inhibition at 10 µM is 25 to 50%.
On to `Cc1cc(OCc2cncs2)cc(=O)n1[C@H](C)c1ccc(C#CC2CC2)cc1` [Compound I-311], for which the inhibition at 2 µM is > 75%.
For the molecule `Cc1cc(OCc2ncccn2)cc(=O)n1C(C)c1ccc(C#CCNc2ccccc2)cc1` (centres unmarked) [Compound I-312], the inhibition at 10 µM was < 25%.
Same read-out and setting: the value for `Cc1cc(OCc2cn(C)cn2)cc(=O)n1[C@H](C)c1ccc(C#CC2CC2)cc1` [Compound I-313] was > 75%; that for `Cc1cc(OCc2ncccn2)cc(=O)n1[C@H](C)c1ccc(C#CC2CCC2)cc1` [Compound I-314] was > 75%.
With `Cc1cc(OCc2cnccc2Cl)cc(=O)n1[C@H](C)c1ccc(C#CC2CC2)cc1` [Compound I-315], the IC50 is < 5 µM and the inhibition at 2 µM was > 75%.
On to `CNC(=O)c1ccc([C@@H](C)n2c(C)cc(OCc3ncccn3)cc2=O)cc1` [Compound I-316], for which the inhibition at 10 µM was < 25%.
On the same count and under the same terms, the value for `CC[C@H](c1ccc(C#CC2CC2)cc1)n1c(C)cc(OCc2ncccn2)cc1=O` [Compound I-317] was > 75%.
With `COc1cccnc1COc1cc(C)n([C@H](C)c2ccc(C#CC3CC3)cc2)c(=O)c1` [Compound I-318], the IC50 was < 5 µM and the inhibition at 10 µM was > 75%.
For `Cc1cc(OCc2ncccn2)nc(=O)n1C(C)c1ccc(C#CC2CC2)cc1` (centres unmarked) [Compound I-320], the inhibition at 10 µM was 50 to 75%.
In the case of `CC(c1ccc(C#CC2CC2)cc1)n1c(Cl)cc(OCc2ncccn2)cc1=O` (centres unmarked) [Compound I-321], the inhibition at 10 µM is > 75%.
For `Cc1cc(OCc2ncccn2)cc(=O)n1[C@H](C)c1ccc(C2CC2)cc1` [Compound I-322], the inhibition at 10 µM was < 25%.
Take `Cc1cc(OCc2cnc(C3CC3)cn2)cc(=O)n1[C@H](C)c1ccc(C#CC2CC2)cc1` [Compound I-323]: the inhibition at 10 µM is > 75%.
As for `Cc1cc(OCc2ncccn2)cc(=O)n1C(CC(F)(F)F)c1ccc(C#CC2CC2)cc1` (centres unmarked) [Compound I-324], the IC50 was < 5 µM and the inhibition at 10 µM was > 75%.
Take `Cc1cc(OCc2ncccn2)cc(=O)n1[C@H](C)c1ccc(C#CC2CC2)c(F)c1` [Compound I-325]: the 50% inhibitory concentration (IC50) is < 5 µM and the inhibition at 10 µM was > 75%.
As to `Cc1cc(OCc2ncccn2)cc(=O)n1[C@@H](C)c1ccc(C#CC2CC2)c(F)c1` [Compound I-326], the IC50 fell in the range of 10 to 15 µM. Moreover, the inhibition at 1 µM (compound tested at 1 μM (concentration code A*)) lay in the range of 25 to 50%.
Consider `Cc1cc(OCc2ncccc2F)cc(=O)n1C(C)c1ccc(C#CC2CC2)nc1` (centres unmarked) [Compound I-327], for which the inhibition at 10 µM lay within 50 to 75%.
As for `Cc1cc(OCc2ncccn2)cc(=O)n1[C@H](C)c1ccc(C#Cc2ccccc2)cc1` [Compound I-329], the inhibition at 10 µM was < 25%.
Regarding `Cc1cc(OCc2ncccn2)cc(=O)n1C(C)c1cnc(C#CC2CC2)nc1` (centres unmarked) [Compound I-340], the inhibition at 10 µM is < 25%.
Consider `CCCOc1ccc(C(C)n2c(C)cc(OCc3ncccn3)cc2=O)cc1` (centres unmarked) [Compound I-343], for which the inhibition at 10 µM is < 25%.
In the case of `Cc1cc(OCc2ncccn2)cc(=O)n1[C@H](C)c1ccc(-c2ccccc2)cc1` [Compound I-344], the inhibition at 10 µM was < 25%.
Regarding `CCCCCCOc1ccc(C(C)n2c(C)cc(OCc3ncccn3)cc2=O)cc1` (centres unmarked) [Compound I-345], the inhibition at 10 µM is < 25%.
On to `Cc1cc(OCc2ncccn2)cc(=O)n1[C@H](C)c1ccc(-c2cnc(C3CC3)nc2)cc1` [Compound I-347], for which the inhibition at 10 µM was < 25%.
`Cc1cc(OCc2nccn2C(C)C)cc(=O)n1[C@H](C)c1ccc(C#CC2CC2)cc1` [Compound I-348]: the inhibition at 10 µM is > 75%.
As to `Cc1cc(OCc2cncn2C)cc(=O)n1[C@H](C)c1ccc(C#CC2CC2)cc1` [Compound I-349], the inhibition at 2 µM is > 75%.
Turning to `Cc1cc(OCc2ccn(C)n2)cc(=O)n1[C@H](C)c1ccc(C#CC2CC2)cc1` [Compound I-350], the inhibition at 10 µM was > 75%.
As to `Cc1cc(OCc2ccnn2C)cc(=O)n1[C@H](C)c1ccc(C#CC2CC2)cc1` [Compound I-351], the IC50 was < 5 µM and the inhibition at 10 µM was > 75%.
As for `Cc1cc(OCc2cnn(C)c2)cc(=O)n1[C@H](C)c1ccc(C#CC2CC2)cc1` [Compound I-352], the inhibition at 10 µM was > 75%.
For `C#Cc1ccc(C(C)n2c(C)cc(OCc3ncccn3)cc2=O)cc1` (centres unmarked) [Compound I-353], the inhibition at 10 µM was < 25%.
Turning to `Cc1cc(OCc2ncccn2)cc(=O)n1C(C)c1ccc2cc(C3CC3)ccc2c1` (centres unmarked) [Compound I-354], the inhibition at 2 µM was < 25%.
In the case of `Cc1cc(OCc2ncc[nH]2)cc(=O)n1[C@H](C)c1ccc(C#CC2CC2)cc1` [Compound I-355], the inhibition at 10 µM is 25 to 50%.
`CCn1ccnc1COc1cc(C)n([C@H](C)c2ccc(C#CC3CC3)cc2)c(=O)c1` [Compound I-356]: the IC50 is < 5 µM and the inhibition at 2 µM is > 75%.
Turning to `Cc1cc(OCc2cn(C)nn2)cc(=O)n1[C@H](C)c1ccc(C#CC2CC2)cc1` [Compound I-357], the IC50 was < 5 µM and the inhibition at 2 µM was > 75%.
